Test results: US20240116985A1, “STAPLED PEPTIDES AND METHODS THEREOF” (priority 2020, published 2024)
pIC50: −log10 of the molar value.

Assays:
[1] = target: T1, full-length beta-Catenin (Uniprot ID P35222) (Homo sapiens, UniProt P35222); experiment: Fluorescence polarization IC50 (beta-catenin / 5FAM-TCF4 10-53 competition); assay type: binding; settings: fluorescence polarization; read-out: beta-Catenin FP IC50
T1 construct: 10 nM full-length beta-Catenin (Uniprot ID P35222)
T1 sequence (P35222 1-781): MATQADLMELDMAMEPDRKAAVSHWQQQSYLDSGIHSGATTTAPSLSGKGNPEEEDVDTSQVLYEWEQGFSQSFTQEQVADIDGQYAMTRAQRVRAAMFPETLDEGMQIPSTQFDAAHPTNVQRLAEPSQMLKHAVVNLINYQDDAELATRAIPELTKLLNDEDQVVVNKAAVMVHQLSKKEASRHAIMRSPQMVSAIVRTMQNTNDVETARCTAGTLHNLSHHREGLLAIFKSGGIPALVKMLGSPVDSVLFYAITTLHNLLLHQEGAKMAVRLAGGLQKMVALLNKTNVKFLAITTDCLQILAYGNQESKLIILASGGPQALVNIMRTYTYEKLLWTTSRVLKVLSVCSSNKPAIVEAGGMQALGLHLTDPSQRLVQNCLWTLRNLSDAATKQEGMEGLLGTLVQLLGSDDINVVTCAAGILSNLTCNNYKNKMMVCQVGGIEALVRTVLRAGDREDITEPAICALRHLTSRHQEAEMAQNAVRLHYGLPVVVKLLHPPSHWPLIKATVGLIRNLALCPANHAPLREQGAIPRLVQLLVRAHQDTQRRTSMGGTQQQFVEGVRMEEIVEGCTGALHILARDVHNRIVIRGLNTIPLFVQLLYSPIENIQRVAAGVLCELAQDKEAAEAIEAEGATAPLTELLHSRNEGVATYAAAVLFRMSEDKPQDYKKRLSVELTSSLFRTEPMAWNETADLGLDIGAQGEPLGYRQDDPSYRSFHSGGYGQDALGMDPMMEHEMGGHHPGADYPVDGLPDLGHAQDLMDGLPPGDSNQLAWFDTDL

[2] = target: T2, beta-catenin/TCF4 engagement (Homo sapiens, UniProt P35222); experiment: Nano-BRET target engagement assay (B-cat-Halo & TCF4-Luc in HEK293 cells); assay type: cell-based; settings: absolute IC50; read-out: NanoBRET Abs IC50
T2 construct: expressed in transfected cells; host or cells: HEK293
T2 sequence (P35222 1-781): T1 sequence (P35222 1-781)

| pIC50 [1] | pIC50 [2] | SMILES |
| --- | --- | --- |
| 7.41 | < 4.70 | CC(=O)N1CCC[C@]12CC=CCCCC1(CCCC=CCCCOC(=O)N3CC[C@@](C(=O)N[C@@H](Cc4ccsc4)C(=O)N[C@@H](Cc4csc5ccccc45)C(=O)N[C@@H](CCC(N)=O)C(N)=O)(C3)NC(=O)[C@H](CC(C)C)NC(=O)[C@H](Cc3ccccc3)NC(=O)[C@H](CCN3CCC(F)(F)CC3)NC(=O)[C@H](C)NC(=O)[C@H](CC(=O)O)NC(=O)[C@H](CC(=O)O)NC1=O)NC(=O)[C@H](CC(C)(C)C)NC(=O)[C@H](CC(=O)O)NC2=O (stereo partly drawn) [I-1505, Ac-PL3-Asp-Npg-B5-Asp-Asp-Ala-F2PipAbu-Phe-Leu-PyrS2-3Thi-BztA-Gln-NH2] |
| 7.52 | < 4.70 | CC(=O)N1CCC[C@]12CC=CCCCC1(CCCC=CCCCOC(=O)N3CC[C@@](C(=O)N[C@@H](Cc4ccsc4)C(=O)N[C@@H](Cc4csc5ccccc45)C(=O)N[C@@H](CCC(N)=O)C(N)=O)(C3)NC(=O)[C@H](CC(C)C)NC(=O)[C@H](Cc3ccccc3)NC(=O)[C@H](CC(=O)N3CCOCC3)NC(=O)[C@H](C)NC(=O)[C@H](CC(=O)O)NC(=O)[C@H](CC(=O)O)NC1=O)NC(=O)[C@H](CC(C)(C)C)NC(=O)[C@H](CC(=O)O)NC2=O (stereo partly drawn) [I-1507, Ac-PL3-Asp-Npg-B5-Asp-Asp-Ala-MorphAsn-Phe-Leu-PyrS2-3Thi-BztA-Gln-NH2] |
| 8.00 | 4.50 | CC(=O)N1CCC[C@]12CC=CCCCC1(CCCC=CCCCOC(=O)N3CC[C@@](C(=O)N[C@@H](Cc4ccsc4)C(=O)N[C@@H](Cc4csc5ccccc45)C(=O)N[C@@H](CCO)C(N)=O)(C3)NC(=O)[C@H](CC(C)C)NC(=O)[C@H](Cc3ccccc3)NC(=O)[C@H](C)NC(=O)[C@H](C)NC(=O)[C@H](CC(=O)O)NC(=O)[C@H](CC(=O)O)NC1=O)NC(=O)[C@H](Cc1ccccc1)NC(=O)[C@H](CC(=O)O)NC2=O (stereo partly drawn) [I-1510, Ac-PL3-Asp-Phe-B5-Asp-Asp-Ala-Ala-Phe-Leu-PyrS2-3Thi-BztA-Hse-NH2] |
| 8.30 | < 4.70 | CC(=O)N1CCC[C@]12CC=CCCCC1(CCCC=CCCCOC(=O)N3CC[C@@](C(=O)N[C@@H](Cc4ccsc4)C(=O)N[C@@H](Cc4csc5ccccc45)C(=O)N[C@@H](CCC(N)=O)C(N)=O)(C3)NC(=O)[C@H](CC(C)C)NC(=O)[C@H](Cc3ccccc3)NC(=O)[C@H](C)NC(=O)[C@H](C)NC(=O)[C@H](CC(=O)O)NC(=O)[C@H](CC(=O)O)NC1=O)NC(=O)[C@H](Cc1ccc(O)cc1)NC(=O)[C@H](CC(=O)O)NC2=O (stereo partly drawn) [I-1511, Ac-PL3-Asp-Tyr-B5-Asp-Asp-Ala-Ala-Phe-Leu-PyrS2-3Thi-BztA-Gln-NH2] |
| 7.92 | < 4.70 | CC(=O)N1CCC[C@]12CC=CCCCC1(CCCC=CCCCOC(=O)N3CC[C@@](C(=O)N[C@@H](Cc4ccsc4)C(=O)N[C@@H](Cc4csc5ccccc45)C(=O)N[C@@H](CCO)C(N)=O)(C3)NC(=O)[C@H](CC(C)C)NC(=O)[C@H](Cc3ccccc3)NC(=O)[C@H](C)NC(=O)[C@H](C)NC(=O)[C@H](CC(=O)O)NC(=O)[C@H](CC(=O)O)NC1=O)NC(=O)[C@H](Cc1ccc(O)cc1)NC(=O)[C@H](CC(=O)O)NC2=O (stereo partly drawn) [I-1512, Ac-PL3-Asp-Tyr-B5-Asp-Asp-Ala-Ala-Phe-Leu-PyrS2-3Thi-BztA-Hse-NH2] |

The next lines start with the compound.

| SMILES | pIC50 [1] | pIC50 [2] |
| --- | --- | --- |
| CC(=O)N1CCC[C@]12CC=CCCCC1(CCCC=CCCCOC(=O)N3CC[C@@](C(=O)N[C@@H](Cc4ccsc4)C(=O)N[C@@H](Cc4csc5ccccc45)C(=O)N[C@H](C(N)=O)[C@@H](C)O)(C3)NC(=O)[C@H](CC(C)C)NC(=O)[C@H](Cc3ccccc3)NC(=O)[C@H](C)NC(=O)[C@H](C)NC(=O)[C@H](CC(=O)O)NC(=O)[C@H](CC(=O)O)NC1=O)NC(=O)[C@H](CC(C)(C)C)NC(=O)[C@H](CC(=O)O)NC2=O (stereo partly drawn) [I-1494, Ac-PL3-Asp-Npg-B5-Asp-Asp-Ala-Ala-Phe-Leu-PyrS2-3Thi-BztA-Thr-NH2] | 8.30 | 4.83 |
| CC(=O)N1CCC[C@]12CC=CCCCC1(CCCC=CCCCOC(=O)N3CC[C@@](C(=O)N[C@@H](Cc4ccsc4)C(=O)N[C@@H](Cc4csc5ccccc45)C(=O)N[C@H](C(N)=O)C(C)C)(C3)NC(=O)[C@H](CC(C)C)NC(=O)[C@H](Cc3ccccc3)NC(=O)[C@H](C)NC(=O)[C@H](C)NC(=O)[C@H](CC(=O)O)NC(=O)[C@H](CC(=O)O)NC1=O)NC(=O)[C@H](CC(C)(C)C)NC(=O)[C@H](CC(=O)O)NC2=O (stereo partly drawn) [I-1495, Ac-PL3-Asp-Npg-B5-Asp-Asp-Ala-Ala-Phe-Leu-PyrS2-3Thi-BztA-Val-NH2] | 7.62 | 4.62 |
| CC(=O)N1CCC[C@]12CC=CCCCC1(CCCC=CCCCOC(=O)N3CC[C@@](C(=O)N[C@@H](Cc4ccsc4)C(=O)N[C@@H](Cc4csc5ccccc45)C(=O)N[C@@H](Cc4ccccc4)C(N)=O)(C3)NC(=O)[C@H](CC(C)C)NC(=O)[C@H](Cc3ccccc3)NC(=O)[C@H](C)NC(=O)[C@H](C)NC(=O)[C@H](CC(=O)O)NC(=O)[C@H](CC(=O)O)NC1=O)NC(=O)[C@H](CC(C)(C)C)NC(=O)[C@H](CC(=O)O)NC2=O (stereo partly drawn) [I-1496, Ac-PL3-Asp-Npg-B5-Asp-Asp-Ala-Ala-Phe-Leu-PyrS2-3Thi-BztA-Phe-NH2] | 7.29 | 5.03 |
| CC(=O)N1CCC[C@]12CC=CCCCC1(CCCC=CCCCOC(=O)N3CC[C@@](C(=O)N[C@@H](Cc4ccsc4)C(=O)N[C@@H](Cc4csc5ccccc45)C(=O)N[C@@H](Cc4c[nH]c5ccccc45)C(N)=O)(C3)NC(=O)[C@H](CC(C)C)NC(=O)[C@H](Cc3ccccc3)NC(=O)[C@H](C)NC(=O)[C@H](C)NC(=O)[C@H](CC(=O)O)NC(=O)[C@H](CC(=O)O)NC1=O)NC(=O)[C@H](CC(C)(C)C)NC(=O)[C@H](CC(=O)O)NC2=O (stereo partly drawn) [I-1497, Ac-PL3-Asp-Npg-B5-Asp-Asp-Ala-Ala-Phe-Leu-PyrS2-3Thi-BztA-Trp-NH2] | 7.30 | 4.94 |
| CC(=O)N1CCC[C@]12CC=CCCCC1(CCCC=CCCCOC(=O)N3CC[C@@](C(=O)N[C@@H](Cc4ccsc4)C(=O)N[C@@H](Cc4csc5ccccc45)C(=O)N[C@@H](CCO)C(N)=O)(C3)NC(=O)[C@H](CC(C)C)NC(=O)[C@H](Cc3ccccc3)NC(=O)[C@H](C)NC(=O)[C@H](C)NC(=O)[C@H](CC(=O)O)NC(=O)[C@H](CC(=O)O)NC1=O)NC(=O)[C@H](CC(C)(C)C)NC(=O)[C@H](CC(=O)O)NC2=O (stereo partly drawn) [I-1499, Ac-PL3-Asp-Npg-B5-Asp-Asp-Ala-Ala-Phe-Leu-PyrS2-3Thi-BztA-Hse-NH2] | 7.64 | 5.19 |
| CC(=O)N1CCC[C@]12CC=CCCCC1(CCCC=CCCCOC(=O)N3CC[C@@](C(=O)N[C@@H](Cc4ccsc4)C(=O)N[C@@H](Cc4csc5ccccc45)C(=O)N[C@H](CCC(N)=O)C(N)=O)(C3)NC(=O)[C@H](CC(C)C)NC(=O)[C@H](Cc3ccccc3)NC(=O)[C@H](C)NC(=O)[C@H](C)NC(=O)[C@H](CC(=O)O)NC(=O)[C@H](CC(=O)O)NC1=O)NC(=O)[C@H](CC(C)(C)C)NC(=O)[C@H](CC(=O)O)NC2=O (stereo partly drawn) [I-1500, Ac-PL3-Asp-Npg-B5-Asp-Asp-Ala-Ala-Phe-Leu-PyrS2-3Thi-BztA-dGln-NH2] | 7.66 | 5.33 |
| CC(=O)N1CCC[C@]12CC=CCCCC1(CCCC=CCCCOC(=O)N3CC[C@@](C(=O)N[C@@H](Cc4ccsc4)C(=O)N[C@@H](Cc4csc5ccccc45)C(=O)N[C@@H](CCC(N)=O)C(N)=O)(C3)NC(=O)[C@H](CC(C)C)NC(=O)[C@H](Cc3ccccc3)NC(=O)[C@H](CCCN3CCOCC3)NC(=O)[C@H](C)NC(=O)[C@H](CC(=O)O)NC(=O)[C@H](CC(=O)O)NC1=O)NC(=O)[C@H](CC(C)(C)C)NC(=O)[C@H](CC(=O)O)NC2=O (stereo partly drawn) [I-1501, Ac-PL3-Asp-Npg-B5-Asp-Asp-Ala-MorphNva-Phe-Leu-PyrS2-3Thi-BztA-Gln-NH2] | 7.34 | < 4.70 |
| CC(=O)N1CCC[C@]12CC=CCCCC1(CCCC=CCCCOC(=O)N3CC[C@@](C(=O)N[C@@H](Cc4ccsc4)C(=O)N[C@@H](Cc4csc5ccccc45)C(=O)N[C@@H](CCC(N)=O)C(N)=O)(C3)NC(=O)[C@H](CC(C)C)NC(=O)[C@H](Cc3ccccc3)NC(=O)[C@H](CCCN3CCC(F)(F)CC3)NC(=O)[C@H](C)NC(=O)[C@H](CC(=O)O)NC(=O)[C@H](CC(=O)O)NC1=O)NC(=O)[C@H](CC(C)(C)C)NC(=O)[C@H](CC(=O)O)NC2=O (stereo partly drawn) [I-1502, Ac-PL3-Asp-Npg-B5-Asp-Asp-Ala-F2PipNva-Phe-Leu-PyrS2-3Thi-BztA-Gln-NH2] | 7.47 | < 4.70 |
| CC(=O)N1CCC[C@]12CC=CCCCC1(CCCC=CCCCOC(=O)N3CC[C@@](C(=O)N[C@@H](Cc4ccsc4)C(=O)N[C@@H](Cc4csc5ccccc45)C(=O)N[C@@H](CCC(N)=O)C(N)=O)(C3)NC(=O)[C@H](CC(C)C)NC(=O)[C@H](Cc3ccccc3)NC(=O)[C@H](CCN3CCOCC3)NC(=O)[C@H](C)NC(=O)[C@H](CC(=O)O)NC(=O)[C@H](CC(=O)O)NC1=O)NC(=O)[C@H](CC(C)(C)C)NC(=O)[C@H](CC(=O)O)NC2=O (stereo partly drawn) [I-1504, Ac-PL3-Asp-Npg-B5-Asp-Asp-Ala-MorphAbu-Phe-Leu-PyrS2-3Thi-BztA-Gln-NH2] | 7.34 | < 4.70 |
